Data taken from ChEMBL document CHEMBL1641568, “An on-bead assay for the identification of non-natural peptides targeting the androgen receptor-cofactor interaction” (Bioorg Med Chem, 2011).
Square brackets hold non-standard residues; d marks the D form. Peptide text beside a SMILES is read from it. Phe(4-Cl) = N[C@@H](Cc1ccc(Cl)cc1)C(=O)O; 2Nal = N[C@@H](Cc1ccc2ccccc2c1)C(=O)O; Cha = N[C@@H](CC1CCCCC1)C(=O)O

Assay: Inhibition of human GST-tagged androgen receptor-ligand binding domain/cofactor interaction assessed as fluorescence polarization by competition assay
With `CC(C)C[C@H](NC(=O)[C@H](CCCNC(=N)N)NC(=O)[C@H](CO)NC(=O)[C@@H](N)CO)C(=O)N[C@@H](CCC(=O)O)C(=O)N[C@@H](CO)C(=O)N[C@@H](Cc1c[nH]c2ccccc12)C(=O)N[C@@H](Cc1ccc(Cl)cc1)C(=O)N[C@@H](C)C(=O)NCC(=O)N[C@@H](CCC(=O)O)C(=O)N[C@@H](CCCCN)C(=O)N[C@@H](CCC(=O)O)C(=O)N[C@@H](CO)C(=O)N[C@@H](CCCNC(=N)N)C(=O)NCC(=O)O` (H-SSRLESW[Phe(4-Cl)]AGEKESRG-OH) the Ki was 166000 nM.
Work on `CC(C)C[C@H](NC(=O)[C@H](CO)NC(=O)[C@H](CCC(=O)O)NC(=O)[C@H](Cc1ccc2ccccc2c1)NC(=O)[C@H](CCCNC(=N)N)NC(=O)[C@H](CO)NC(=O)[C@@H](N)CO)C(=O)N[C@@H](Cc1c[nH]c2ccccc12)C(=O)N[C@@H](C)C(=O)NCC(=O)N[C@@H](CCC(=O)O)C(=O)N[C@@H](CCCCN)C(=O)N[C@@H](CCC(=O)O)C(=O)N[C@@H](CO)C(=O)N[C@@H](CCCNC(=N)N)C(=O)NCC(=O)O` (H-SSR[2Nal]ESLWAGEKESRG-OH) yielded a Ki of 3680 nM.
Molecule H-SSRWESWFAGEKESRG-OH has a Ki of 82900 nM.
For H-SSRFESWFAGEKESRG-OH, the Ki was 940 nM.
With H-SSRFESLFAGEKESRG-OH the Ki was 760 nM.
For `C[C@H](NC(=O)[C@H](Cc1c[nH]c2ccccc12)NC(=O)[C@H](CC1CCCCC1)NC(=O)[C@H](CO)NC(=O)[C@H](CCC(=O)O)NC(=O)[C@H](Cc1ccc2ccccc2c1)NC(=O)[C@H](CCCNC(=N)N)NC(=O)[C@H](CO)NC(=O)[C@@H](N)CO)C(=O)NCC(=O)N[C@@H](CCC(=O)O)C(=O)N[C@@H](CCCCN)C(=O)N[C@@H](CCC(=O)O)C(=O)N[C@@H](CO)C(=O)N[C@@H](CCCNC(=N)N)C(=O)NCC(=O)O` (H-SSR[2Nal]ES[Cha]WAGEKESRG-OH), the Ki was 470 nM.
`C[C@H](NC(=O)[C@H](CC1CCCCC1)NC(=O)[C@H](Cc1ccccc1)NC(=O)[C@H](CO)NC(=O)[C@H](CCC(=O)O)NC(=O)[C@H](Cc1c[nH]c2ccccc12)NC(=O)[C@H](CCCNC(=N)N)NC(=O)[C@H](CO)NC(=O)[C@@H](N)CO)C(=O)NCC(=O)N[C@@H](CCC(=O)O)C(=O)N[C@@H](CCCCN)C(=O)N[C@@H](CCC(=O)O)C(=O)N[C@@H](CO)C(=O)N[C@@H](CCCNC(=N)N)C(=O)NCC(=O)O` (H-SSRWESF[Cha]AGEKESRG-OH) showed a Ki of 2440 nM.
